According to patent US7300917B2, “Remedy for chronic disease” (Ono Pharmaceuticals Co., Ltd., priority 2002, dated 2007):
“Also recorded” adds a separate entry of the source.

Columns and labels:
Assay type in all cases: cell-based
[1] = system: human prostate stroma cells; assay: Inhibition by an EDG-2 antagonist of LPA-dependent proliferation of human prostate stroma cells (BrdU uptake); conditions: LPA 1 μM; test compound 1 nM to 10 μM; 24 hours; FIG. 2-4
Description: To an MEM-α medium containing 10% FBS (fetal bovine serum), gentamicin (50 μg/ml), amphortercin B (50 ng/mL) and human bFGF and human insulin)(GIBCO Inc.) was added PrSC 5685 in a concentration of 1×10^4 cells/well in a 96-well plate and the mixture was cultured for 24 hours. Afterwards, it was washed with Hanks solution twice and the medium was exchanged with a serum-free medium (MEM-α containing gentamicin (50 μg/ml) and amphotercin B (50 ng/ml)) and cultured for another 24 hours. Thereto was added LPA (final concentration: 1 nM-10 μM) and at the same time was added BrdU and the mixture was cultured for 24 hours. The same amount of physiological saline was added in place of LPA as a control.
Uptaking of BrdU was measured by using cell proliferation ELISA kit (Amersham Inc.). Specifically, the cells were treated with BrdU and the cultured serum was discarded and to each well was added a cell anchorage/DNA denaturation solution (150 μl) and the mixture was allowed to stand for 30 minutes. The cell anchorage/DNA denaturation solution was removed and to the mixture was added Blocking buffer (150 μl) and the mixture was allowed to stand for another 30 minutes. Next the Blocking buffer was removed and thereto was added anti-BrdU antibody solution (100 μL) labeled with peroxidase and the mixture was allowed to stand for 30 minutes. Next the antibody solution was removed and the mixture was washed with Wash buffer (PBS(−); 150 μl) three times, moisture was removed enough by tapping and thereto was added a solution of a reaction substance (3,3′,5,5′,-tetramethylbenzidine, TMB 15% solution in DMSO; 100 μL). Thereto was added 2N solution of sulfuric acid (25 μL) and the absorbance was measured at 450 nm by microplate reader SPECTRAMAXPRO.
Human-prostate stroma cells were cultured by the method described in example 2, just before adding LPA the test compound (final concentration: 1 nM to 10 μM) were added. […] After adding LPA was added BrdU and it was cultured for another 24 hours and the uptaking activity of BrdU was measured.

[2] = molecular target: T1, human EDG-2 (Homo sapiens, UniProt Q92633); assay: Evaluation of EDG-2 antagonistic activity by monitoring the change of intracellular calcium ion concentration; conditions: CHO cells overexpressing human EDG-2; inhibition of intracellular calcium increase by LPA (100 nM); Fura2
T1 construct: expressed in transfected cells; host or cells: Chinese hamster ovary (CHO) cells
T1 sequence (Q92633 whole entry): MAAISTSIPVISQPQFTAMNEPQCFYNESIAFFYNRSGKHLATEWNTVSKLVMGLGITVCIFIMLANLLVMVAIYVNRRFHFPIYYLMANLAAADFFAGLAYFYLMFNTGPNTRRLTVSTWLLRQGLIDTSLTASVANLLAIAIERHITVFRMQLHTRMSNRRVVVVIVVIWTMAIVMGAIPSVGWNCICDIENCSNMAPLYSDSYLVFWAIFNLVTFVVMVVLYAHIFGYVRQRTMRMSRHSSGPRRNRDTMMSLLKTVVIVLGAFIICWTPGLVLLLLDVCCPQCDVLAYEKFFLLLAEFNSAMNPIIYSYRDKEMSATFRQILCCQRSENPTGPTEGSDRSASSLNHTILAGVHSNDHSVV
Description: Chinese hamster ovary (CHO) cells which overexpressed human EDG-2 gene were cultured in Ham's F12 medium (GIBCO BRL) containing 10% FBS (fetal bovine serum), penicillin/streptomycin and blasticidin (5 μg/ml). Thus cultured cells were incubated in Fura2 (5 μM)-AM solution [Ham's F12 medium containing FBS (10%), HEPES buffer (20 mM, pH 7.4) and probenecid (2.5 mM)]. Next, it was washed with Hanks solution containing HEPES buffer (20 mM, pH 7.4) and probenecid (2.5 mM) once, and immersed into the Hanks solution. Plates were set in fluorescent drug screening system and intracellular calcium ion concentration was measured for 30 seconds with no stimulation. Five minutes after adding thereto a compound to be tested (final concentration: 1 nM to 10 μM, in dimethylsulfoxide (DMSO) solution), the increase of intracellular calcium ion concentrations before and after the addition of LPA (excitation wave length: […]; fluorescent wave length: 500 nm) were measured every 3 seconds. 1-oleoyl (18:1)-LPA (Sigma) or 1-linolenoyl (18:3)-LPA was used as LPA. 1-linolenoyl (18:3)-LPA was synthesized and purified by either of the following two methods. […]

[3] = system: mouse precursor fat cells (3T3-L1); assay: Inhibition by an EDG-2 antagonist of LPA-dependent proliferation of mouse precursor fat cells (BrdU uptake); conditions: compound 0.001 μM-10 μM, FIG. 9-10
Description: Proliferating activity of mouse precursor fat cells by LPA was measured by BrdU uptaking activity of the cells (3T3-L1). In a medium containing serum (DMEM/10% FBS (50 μg/mL); gentamicin (50 ng/mL); amphotericin B) the cells were suspended and the suspension was sowed in a concentration of 1×10^4 cells/well in a 96-well plate and it was cultured for 24 hours, and then it was washed with Hanks solution (150 μL) twice and the medium was exchanged with serum-free medium (DMEM (50 μg/mL); gentamicin (50 ng/mL); amphotericin B) and it was cultured for another 24 hours. Thereto was added the compound (b) or compound (c) in a final concentration of 0.001 μM-10 μM and 20 hours later thereto was added BrdU and 24 hours later, the uptaking of BrdU was measured.

[4] = system: human synovial cells (HFLS); assay: Inhibition by an EDG-2 antagonist of LPA-dependent proliferation of human synovial cells (BrdU uptake); conditions: LPA 3 μM, compound 0.001 μM-10 μM, FIG. 11-12
Description: Proliferating activity of human synovial cells by LPA was measured by BrdU uptaking activity of the cells (HFLS CELL APPLICATION Inc.). In a medium containing serum (Synoviocyte Basal Medium/Synoviocyte Growth Supplement) the cells were suspended and they were sowed in a collagen-coated 96-well plate in a concentration of 1×10^4 cells/well and 24 hours after it was washed with Hanks solution (150 μl) twice and the medium was exchanged with serum-free medium (Synoviocyte Basal Medium) in a volume of 100 μL/well and it was cultured for 24 hours. The compound (b) or compound (c) (each in a concentration of 0.001 μM-10 μM) was simultaneously added with LPA (in a concentration of 3 μM) and 18 hours after, thereto was added BrdU and the uptaking of BrdU was measured.

[5] = system: human airway smooth muscle cells; assay: Inhibition by an EDG-2 antagonist of LPA-dependent proliferation of human airway smooth muscle cells (BrdU uptake); conditions: LPA 3 μM; test compound 1 nM-10 μM; 6 hours; FIG. 6-7
Description: BSMC was sowed to an MEM-α medium (GIBCO) containing 10% FBS (fetal bovine serum), gentamicin (50 μg/ml), amfortercin B (50 ng/ml), human bFGF and human insulin in a concentration of 1×10^4 cells/well in a 96-well plate and the mixture was cultured for 24 hours. Afterwards, it was washed with Hanks solution twice, and the medium was exchanged with a serum-free medium (an MEM-α containing gentamicin (50 μg/ml) and amphortecin B (50 ng/ml)) and the mixture was cultured for another 24 hours. Thereto was added LPA (final concentration: 3 nM-10 μM) and simultaneously was added BrdU and the mixture was cultured for another 6 hours. The same amount of physiological saline was added as a control in place of LPA.
Uptaking of BrdU was measured by using cell proliferation ELISA kit (Amersham Inc.). Specifically, the cells were treated with BrdU and the cultured serum was discarded and to each well was added a cell anchorage/DNA denaturation solution (150 μl) and the mixture was allowed to stand for 30 minutes. […] Thereto was added 2N solution of sulfuric acid (25 μL) and the absorbance was measured at 450 nm by microplate reader SPECTRAMAXPRO.
By the method shown in example 4 BSMC was cultured and the test compound (final concentration: 1 nM-10 μM) was added just before adding LPA. […] After adding LPA, BrdU was added and it was cultured for 6 hours and the uptaking activity of BrdU was measured.

IC50 [2] | SMILES | inhibition of proliferation of human prostate stroma cells by LPA stimulation (BrdU uptaking activity) [1] | inhibition of proliferation of mouse precursor fat cells by LPA stimulation (BrdU uptaking activity) [3] | inhibition of proliferation of human synovial cells by stimulation of LPA (BrdU uptaking activity) [4] | inhibition of proliferation of human airway smooth muscle cells by LPA stimulation (BrdU uptaking activity) [5]
0.19 µM | COc1cc(C(=O)N(CCCc2ccccc2)Cc2ccc(-c3ccccc3CC(=O)O)cc2)cc(OC)c1OC [compound (c), (4′-{[(3-phenylpropyl)(3,4,5-trimethoxybenzoyl)amino]methyl}-2-biphenylyl)acetic acid] | suppresses the proliferation effect of normal human prostate stroma cells by LPA, depending on the concentration | inhibits the proliferation effect of normal human precursor fat cells induced by LPA depending on the concentration; also recorded: inhibited the proliferation of mouse precursor fat cells by LPA stimulation depending on the concentration | inhibits the proliferation effect of normal human synovial membrane depending on the concentration | –
1.5 µM | COC(=O)CCSCc1ccc(-c2onc(C)c2NC(=O)OC(C)c2ccccc2Cl)cc1 (stereo not drawn) [compound (b), methyl 3-({4-[4-({[1-(2-chlorophenyl)ethoxy]carbonyl}amino)-3-methyl-5-isoxazolyl]benzyl}sulfanyl)propanoate, reference compound] | suppresses the proliferation effect of normal human prostate stroma cells by LPA, depending on the concentration | inhibits the proliferation effect of normal human precursor fat cells induced by LPA depending on the concentration; also recorded: inhibited the proliferation of mouse precursor fat cells by LPA stimulation depending on the concentration | inhibits the proliferation effect of normal human precursor fat cells depending on the concentration; also recorded: inhibited the proliferation of human synovial cells by stimulation of LPA | inhibits the proliferation effect of normal human airway smooth muscle cells induced by LPA depending on the concentration
– | COc1ccc(OC)c(CCN(CCC(=O)O)C(=O)c2ccccc2-c2ccccc2C(=O)NCc2cccnc2)c1.Cl [compound (a), 3-(N-((2-(2-((pyridin-3-ylmethylamino)carbonyl)phenyl)phenyl)carbonyl)-N-(2-(2,5-dimethoxyphenyl)ethyl)amino)propanoic acid hydrochloride] | suppresses the proliferation effect of normal human prostate stroma cells by LPA, depending on the concentration | – | inhibited the proliferation of human synovial cells by stimulation of LPA | suppresses the proliferation effect of normal human airway smooth muscle cells by LPA, depending on the concentration
